{"source": "PubChem BioAssay AID504471", "about": "(NMMLSC, 2011)"}
{"molecular_target": "Retrograde regulation protein 3 (Saccharomyces cerevisiae (strain ATCC 204508 / S288c)) (UniProt P38165)", "assay": "nuclear shift of GFP-tagged Rtg3 – imaging, fluorescence microscopy, S288c, yeast TOR pathway modulator project, SAR follow-up (AID 504471)", "conditions": "S. cerevisiae Rtg3-GFP, nuclear translocation by microscopy; at 30 µM; hits give high values"}
{"smiles": "CNc1nc(N)c([N+](=O)[O-])c(Nc2cccc(Cl)c2)n1", "nuclear translocation (1=yes, 0=no)": 1}
{"smiles": "CNc1nc(N)c([N+](=O)[O-])c(Nc2cccc(F)c2)n1", "nuclear translocation (1=yes, 0=no)": 1}
{"smiles": "CO[C@H]1C[C@@H]2CC[C@@H](C)[C@@](O)(O2)C(=O)C(=O)N2CCCC[C@H]2C(=O)O[C@H]([C@H](C)C[C@@H]2CC[C@@H](O)[C@H](OC)C2)CC(=O)[C@H](C)/C=C(\\C)[C@@H](O)[C@@H](OC)C(=O)[C@H](C)C[C@H](C)/C=C/C=C/C=C/1C", "nuclear translocation (1=yes, 0=no)": 1}
{"smiles": "CNc1nc(N)c([N+](=O)[O-])c(Nc2ccccc2)n1", "nuclear translocation (1=yes, 0=no)": 1}
